Reference: patent US20220024905A1, “CRYSTALLINE FORM OF PROPANAMIDE DERIVATIVE AND PREPARATION METHOD THEREFOR” (NHWA PHARMA. CORPORATION, priority 2018, published 2022)
Read-outs that look alike come from different tables or passages of the source.

Key:
[1] = Crystalline stability: stability factors test at high humidity, high temperature and light (PXRD and HPLC content); assay type: physicochemical; settings: for Content (%): HPLC content (w/w, %); for Crystal form: PXRD; for content (all conditions) / morphology of crystal form: high humidity, high temperature and light, each for 10 days
Source text: The samples were taken at day 5 and day 10 respectively for PXRD (polycrystalline X ray diffraction) detection and HPLC content (w/w, %) determination, and the results were compared with that of day 0.

[2] = Pharmacokinetics of Crystal Form A and Crystal Form B capsules in beagle dogs; assay type: in vivo
Method: There were 12 beagle dogs for the experiment, half male and half female, weighing 11.0-14.1 kg, provided by the Teaching and Experimental Ground of Agricultural College of Shanghai Jiao Tong University. The animals were raised in single cage, and the feeding amount can be adjusted according to the weight or feed intake of the animals. The animals can drink water freely, with 12/12 h light/dark cycle adjustment, constant temperature of 23±1° C., humidity of 50-60%. On the day of administration, the experimental animals were fasted overnight before administration. […] The animals were weighed on the day of administration, and the dosage was determined according to their body weight. The above-mentioned grouped beagle dogs were administered according to the method in Table 5 below. [table] 1 mL of whole blood was collected from the cephalic vein at blood collection time points of 0.0830, 0.250, 0.500, 1.00, 2.00, 4.00, 8.00, 24.00 h after administration. […] The analytical method was performed by liquid chromatography tandem triple quadrupole mass spectrometry (LC MS/MS). […] The peak concentration (Cmax) and the peak time (Tmax) were obtained from the plasma concentration-time curve graph. The log-linear trapezoidal method (see: Gabrielsson J, Weiner D. Pharmacokinetic and pharmacodynamic data analysis: concepts and applications[M]. CRC Press, 2001, pages 141-146) was used to calculate the following parameters: elimination phase half-life (T1/2), mean retention time extrapolated from zero time point to infinity (MRT0-inf), mean retention time from zero time point to the last detectable concentration time point (MRT0-last), the area under the plasma concentration-time curve from the zero time point to the last detectable concentration time point (AUC0-last), and the area under the plasma concentration-time curve extrapolated from the zero time point to infinity (AUC0-inf). The experimental data was expressed as the mean (Mean)±standard deviation (S.D.). The excel software t-test was used for statistical comparison.

[3] = Mechanical stress of the crystal form (ball milling, PXRD); assay type: physicochemical; settings: for Crystal form after ball milling: ball mill 400 r/min, PXRD, duplicate mortars; for change of crystal form under ball milling pressure: ball milled for 30 min, 4 h and 6 h
Method: Samples were taken when the ball milled at 30 min, 4 h and 6 h respectively, and then for PXRD test. The change of crystal form was observed, and the experiment was carried out parallelly in duplicate.

[4] = Day 10 at high humidity (R.H. 92.5%)
[5] = Day 10 at high temperature (60° C.)
[6] = beagle dogs, PO 5 mg/kg, capsule, n = 6
[7] = beagle dogs, PO 5 mg/kg, capsule, x ± s, n = 6

CN1CCc2ccc(OCCCN3CCC(c4noc5cc(F)ccc45)CC3)cc2C1=O [Crystal Form B, 7-(3-(4-(6-fluorobenzo[d]isoazol-3-yl)piperidin-1-yl)propoxy)-2-methyl-3,4-dihydroisoquinolin-1(2H)-one]
Content (%) ([1]; Day 0): 96.70%
Crystal form ([1]; Day 0): Crystal Form B
Content (%) [1, 4]: 96.67%
Crystal form [1, 4]: Crystal Form B +
Content (%) [1, 5]: 96.65%
Crystal form [1, 5]: Crystal Form B +
Content (%) ([1]; Day 10 at light (4500±500 lx)): 96.69%
Crystal form ([1]; Day 10 at light (4500±500 lx)): Crystal Form B +
content (all conditions) [1]: ≥ 96.0%
morphology of crystal form [1]: could not remain stable
T1/2 [2, 6]: 2.1 h
Tmax [2, 6]: 1.7 h
AUC0-inf [2, 7]: 2186 ± 82.1 ng·h/mL
AUC0-last [2, 7]: 2039 ± 81.9 ng·h/mL
Cmax [2, 7]: 426 ± 32.75 ng/mL
Crystal form after ball milling ([3]; 30 min): Crystal Form B
Crystal form after ball milling ([3]; 4 h): Crystal Form B +
Crystal form after ball milling ([3]; 6 h): Crystal Form B +
change of crystal form under ball milling pressure [3]: its crystal form changed significantly

CN1CCc2ccc(OCCCN3CCC(c4noc5cc(F)ccc45)CC3)cc2C1=O [Crystal Form A, 7-(3-(4-(6-fluorobenzo[d]isoazol-3-yl)piperidin-1-yl)propoxy)-2-methyl-3,4-dihydroisoquinolin-1(2H)-one]
Content (%) ([1]; Day 0): 97.21%
Crystal form ([1]; Day 0): Crystal Form A
Content (%) [1, 4]: 97.18%
Crystal form [1, 4]: Crystal Form A
Content (%) [1, 5]: 97.15%
Crystal form [1, 5]: Crystal Form A
Content (%) ([1]; Day 10 at light (4500±500 lx)): 97.13%
Crystal form ([1]; Day 10 at light (4500±500 lx)): Crystal Form A
content (all conditions) [1]: ≥ 97.0%
morphology of crystal form [1]: stable
half-life ([2]; both sexes, beagle, dog, plasma, po, 5 mg/kg, beagle dogs, PO 5 mg/kg, capsule, n = 6): 2.9 h
Tmax ([2]; both sexes, beagle, dog, plasma, po, 5 mg/kg, beagle dogs, PO 5 mg/kg, capsule, n = 6, read-out: Tmax): 2.6 h
AUC(0-t) ([2]; both sexes, beagle, dog, plasma, po, 5 mg/kg, beagle dogs, PO 5 mg/kg, capsule, x ± s, n = 6): 2840 ± 77.8 ng·h/mL
AUC0-inf ([2]; both sexes, beagle, dog, plasma, po, 5 mg/kg, beagle dogs, PO 5 mg/kg, capsule, x ± s, n = 6, read-out: AUC0-inf): 2990 ± 82 ng·h/mL
Cmax ([2]; both sexes, beagle, dog, plasma, po, 5 mg/kg, beagle dogs, PO 5 mg/kg, capsule, x ± s, n = 6, read-out: Cmax): 645 ± 37.2 ng/mL
bioavailability ([2]; both sexes, beagle, dog, plasma, po, 5 mg/kg, read-out: relative bioavailability (F)): 137%
Crystal form after ball milling ([3]; 30 min): Crystal Form A
Crystal form after ball milling ([3]; 4 h): Crystal Form A
Crystal form after ball milling ([3]; 6 h): Crystal Form A
change of crystal form under ball milling pressure [3]: its crystal form did not change
